Assay results as given in ChEMBL document CHEMBL1201862, “PubChem BioAssay data set” (2004).
Active and inactive are the calls of the source.

Legend:
[1] = molecular target: T1, Estrogen receptor (Homo sapiens, UniProt P03372);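 also: potency for inhibiting coactivator peptide recruitment to the receptor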
T1 sequence (P03372 whole entry): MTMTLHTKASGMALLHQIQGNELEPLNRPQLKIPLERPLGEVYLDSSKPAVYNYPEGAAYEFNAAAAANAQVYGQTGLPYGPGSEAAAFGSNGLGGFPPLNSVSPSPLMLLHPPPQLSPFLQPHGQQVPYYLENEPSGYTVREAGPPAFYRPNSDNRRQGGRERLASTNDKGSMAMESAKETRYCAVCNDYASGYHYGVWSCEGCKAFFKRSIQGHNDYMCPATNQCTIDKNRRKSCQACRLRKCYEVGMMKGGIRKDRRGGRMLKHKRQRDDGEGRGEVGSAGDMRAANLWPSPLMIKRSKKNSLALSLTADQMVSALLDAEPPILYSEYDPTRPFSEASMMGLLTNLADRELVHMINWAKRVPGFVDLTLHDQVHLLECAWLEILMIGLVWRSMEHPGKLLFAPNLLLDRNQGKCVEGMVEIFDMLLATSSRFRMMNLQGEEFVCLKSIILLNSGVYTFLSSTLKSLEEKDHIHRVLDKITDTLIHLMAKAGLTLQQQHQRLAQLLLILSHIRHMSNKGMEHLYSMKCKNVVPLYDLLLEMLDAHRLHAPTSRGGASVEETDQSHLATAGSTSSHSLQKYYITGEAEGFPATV

[2] = molecular target: Long-chain-fatty-acid--AMP ligase FadD28 (Mycobacterium tuberculosis, UniProt P9WQ59); assay: Fluorescence polarization aasay to screen for inhibitors that compete for the binding of FadD28 to a bisubstrate Measured in Biochemical System Using Plate Reader - 2147-01_Inhibitor_Dose_CherryPick_Activity.; format: functional, Mycobacterium tuberculosis H37Rv
[3] = Trypanosoma cruzi growth suppression in host cells – NIH3T3 host cells, beta-gal luminescence, confirmation (AID 2044); format: functional, cell-based;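 also: intracellular parasites grown in NIH/3T3 mouse fibroblasts as host cells; luminescent beta-galactosidase reporter signal from transgenic T. cruzi replicating inside host cells; inhibitors lower the luminescence signal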
[4] = molecular target: SWI/SNF-related matrix-associated actin-dependent regulator of chromatin subfamily A member 2 (Homo sapiens, UniProt P51531); assay: Luminescence-based cell-based high throughput dose response assay to identify activators of the function of SWI/SNF related, matrix associated, actin dependent regulator of chromatin, subfamily a, member 2 (SMARCA2, BRM).; format: functional
[5] = NIH3T3 cell viability loss – ATP luminescence, mouse fibroblasts, counter-screen, dose response (AID 2010); format: functional, cell-based;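 also: cells exposed to compound for about 90 hours before reading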
[6] = viability loss in HeLa cells – cytotoxicity control for MgcRacGAP inhibitor project, dose response (AID 624300); format: functional
[7] = molecular target: T2, DNA repair protein RAD52 homolog (Homo sapiens, UniProt P43351); format: functional, biochemical
T2 sequence (P43351 whole entry): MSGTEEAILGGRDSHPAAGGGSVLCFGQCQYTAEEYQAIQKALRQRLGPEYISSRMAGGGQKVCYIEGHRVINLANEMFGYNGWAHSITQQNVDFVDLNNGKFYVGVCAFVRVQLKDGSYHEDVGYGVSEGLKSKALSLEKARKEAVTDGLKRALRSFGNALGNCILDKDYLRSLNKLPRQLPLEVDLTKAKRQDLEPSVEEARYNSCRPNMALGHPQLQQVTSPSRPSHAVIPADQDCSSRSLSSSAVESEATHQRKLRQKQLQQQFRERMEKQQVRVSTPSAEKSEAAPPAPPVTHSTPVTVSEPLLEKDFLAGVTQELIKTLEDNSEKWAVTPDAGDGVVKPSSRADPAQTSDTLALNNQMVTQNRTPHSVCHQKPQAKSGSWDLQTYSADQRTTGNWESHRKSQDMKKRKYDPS

[8] = molecular target: T3, Rac GTPase-activating protein 1 (Homo sapiens, UniProt Q9H0H5); assay: blockers of MgcRacGAP-driven Rac1 GTP hydrolysis – biochemical, ADP Hunter fluorescence, primary and confirmatory, confirmation (AID 624330); format: functional
T3 sequence (Q9H0H5 whole entry): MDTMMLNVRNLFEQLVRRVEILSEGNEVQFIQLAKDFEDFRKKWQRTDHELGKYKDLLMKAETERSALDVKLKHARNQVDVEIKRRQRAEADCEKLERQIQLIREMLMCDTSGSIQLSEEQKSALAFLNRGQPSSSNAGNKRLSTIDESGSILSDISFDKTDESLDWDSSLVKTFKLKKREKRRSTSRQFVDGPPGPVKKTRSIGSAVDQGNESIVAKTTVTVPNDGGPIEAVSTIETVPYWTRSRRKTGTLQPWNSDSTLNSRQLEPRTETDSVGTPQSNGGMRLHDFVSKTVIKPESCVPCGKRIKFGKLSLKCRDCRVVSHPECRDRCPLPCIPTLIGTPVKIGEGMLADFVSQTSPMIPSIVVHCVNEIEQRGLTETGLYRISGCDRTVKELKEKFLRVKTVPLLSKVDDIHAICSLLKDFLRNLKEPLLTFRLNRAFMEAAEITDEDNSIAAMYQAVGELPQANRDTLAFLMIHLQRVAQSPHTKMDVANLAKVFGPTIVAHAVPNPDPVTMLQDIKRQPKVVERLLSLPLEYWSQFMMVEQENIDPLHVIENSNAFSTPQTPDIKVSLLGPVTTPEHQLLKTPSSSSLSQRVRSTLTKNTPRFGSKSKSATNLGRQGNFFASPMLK

[9] = Counterscreen for activators of the function of SWI/SNF related, matrix associated, actin dependent regulator of chromatin, subfamily a, member 2 (SMARCA2, BRM): Luminescence-based cell-based high throughput dose response assay to identify non-selective compounds using the VP16 reporter assay.; format: functional
[10] = cytotoxicity in HEK293 background cells – cell-based, dry powder, set 2, counter-screen for EBV LMP1 inhibitor project, dose response (AID 624374); format: functional
[11] = cells; format: functional, cell-based; settings: HEK-CNG
[12] = molecular target: T4, COUP transcription factor 2 (Homo sapiens, UniProt P24468); assay: Luminescence-based cell-based high throughput dose response assay to identify inhibitors of COUP-TFII (NR2F2).; format: functional;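 also: HEK293 cells transiently cotransfected with COUP-TFII expression vector and reporter; luciferase reporter luminescence driven by COUP-TFII from the pX2-168 reporter plasmid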
T4 sequence (P24468 whole entry): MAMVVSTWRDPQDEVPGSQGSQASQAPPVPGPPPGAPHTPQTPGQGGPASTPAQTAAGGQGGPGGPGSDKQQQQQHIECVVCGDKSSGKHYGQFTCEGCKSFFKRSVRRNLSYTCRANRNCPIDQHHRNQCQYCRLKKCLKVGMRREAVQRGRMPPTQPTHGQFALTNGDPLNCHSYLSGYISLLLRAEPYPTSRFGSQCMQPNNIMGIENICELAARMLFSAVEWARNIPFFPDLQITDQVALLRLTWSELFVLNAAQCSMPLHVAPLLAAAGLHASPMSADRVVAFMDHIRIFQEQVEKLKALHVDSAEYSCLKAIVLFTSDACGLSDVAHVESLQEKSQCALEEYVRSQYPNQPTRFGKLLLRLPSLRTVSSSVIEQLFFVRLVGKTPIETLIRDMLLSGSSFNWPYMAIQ

[13] = molecular target: Galanin receptor type 3 (Homo sapiens, UniProt O60755); assay: Fluorescence-based cell-based primary high throughput dose response assay to identify antagonists of the Galanin Receptor 3 (GalR3).; format: functional
[14] = Luminescence-based cell-based high throughput dose response assay to identify activators of the DAF-12 from the parasite S. stercoralis (ssDAF-12).; format: functional
[15] = test system: INS1; assay: INS-1E survival protection against cytokine death – cell-based, luminescence, retest, dose response (AID 449756); format: functional; settings: Rattus norvegicus;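 also: cell death triggered by IL-1 beta plus TNF-alpha plus IFN-gamma mixture; protective hits raise ATP signal compared with cytokine alone wells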
[16] = molecular target: T5, Heat shock factor protein 1 (Mus musculus, UniProt P38532); assay: enhancement of HSF1-driven luciferase signal – cell-based, NIH3T3, luminescence, dose retest, confirmation (AID 435004); format: functional;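 also: stress induced by proteasome inhibitor MG132 added 30 min after compound; luciferase reporter driven by HSF1 response element in NIH3T3 cells; actives raise luminescence as potentiators of the MG132 stress response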
T5 sequence (P38532 whole entry): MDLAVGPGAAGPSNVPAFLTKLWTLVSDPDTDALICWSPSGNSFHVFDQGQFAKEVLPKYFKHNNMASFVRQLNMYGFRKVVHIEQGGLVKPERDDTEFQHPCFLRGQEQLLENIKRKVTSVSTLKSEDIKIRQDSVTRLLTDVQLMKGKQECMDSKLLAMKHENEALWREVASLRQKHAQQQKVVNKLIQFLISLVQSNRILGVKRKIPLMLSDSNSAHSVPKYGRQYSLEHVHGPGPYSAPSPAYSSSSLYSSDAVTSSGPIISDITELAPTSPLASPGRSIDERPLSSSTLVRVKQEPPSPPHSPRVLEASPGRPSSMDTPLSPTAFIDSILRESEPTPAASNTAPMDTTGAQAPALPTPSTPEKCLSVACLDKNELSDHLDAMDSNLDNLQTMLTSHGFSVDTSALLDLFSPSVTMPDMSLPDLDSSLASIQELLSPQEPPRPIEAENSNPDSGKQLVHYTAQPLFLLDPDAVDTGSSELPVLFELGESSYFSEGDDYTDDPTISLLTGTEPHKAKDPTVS

[17] = cells; format: functional, cell-based
[18] = cells; format: functional, cell-based; remark: listed apart in the source
[19] = molecular target: T6, Microphthalmia-associated transcription factor (Homo sapiens, UniProt O75030); assay: reducers of TRPM1 reporter luminescence, concentration series – cell-based, SK-MEL-5, cherry-picked, set 3, MITF inhibitor project, dose response (AID 493073); format: functional;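 also: SK-MEL-5 melanoma cells with luciferase driven by the MITF target TRPM1 promoter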
T6 sequence (O75030 whole entry): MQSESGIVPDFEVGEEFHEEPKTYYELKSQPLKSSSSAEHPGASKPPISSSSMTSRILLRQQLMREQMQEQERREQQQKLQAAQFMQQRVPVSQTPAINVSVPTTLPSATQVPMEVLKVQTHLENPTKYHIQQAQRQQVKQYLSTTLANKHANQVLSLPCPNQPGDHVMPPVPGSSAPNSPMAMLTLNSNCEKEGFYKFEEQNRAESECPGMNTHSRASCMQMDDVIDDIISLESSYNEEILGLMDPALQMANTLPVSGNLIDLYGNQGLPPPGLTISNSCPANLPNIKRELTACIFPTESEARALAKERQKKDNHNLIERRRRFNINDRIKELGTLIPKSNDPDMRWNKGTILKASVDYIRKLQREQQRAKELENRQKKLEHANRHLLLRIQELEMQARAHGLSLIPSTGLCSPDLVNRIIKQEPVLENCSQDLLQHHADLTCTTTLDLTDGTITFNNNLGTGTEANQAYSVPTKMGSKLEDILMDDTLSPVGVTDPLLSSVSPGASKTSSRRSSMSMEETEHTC

SWI/SNF-related matrix-associated actin-dependent regulator of chromatin subfamily A member 2, sequence (P51531 whole entry): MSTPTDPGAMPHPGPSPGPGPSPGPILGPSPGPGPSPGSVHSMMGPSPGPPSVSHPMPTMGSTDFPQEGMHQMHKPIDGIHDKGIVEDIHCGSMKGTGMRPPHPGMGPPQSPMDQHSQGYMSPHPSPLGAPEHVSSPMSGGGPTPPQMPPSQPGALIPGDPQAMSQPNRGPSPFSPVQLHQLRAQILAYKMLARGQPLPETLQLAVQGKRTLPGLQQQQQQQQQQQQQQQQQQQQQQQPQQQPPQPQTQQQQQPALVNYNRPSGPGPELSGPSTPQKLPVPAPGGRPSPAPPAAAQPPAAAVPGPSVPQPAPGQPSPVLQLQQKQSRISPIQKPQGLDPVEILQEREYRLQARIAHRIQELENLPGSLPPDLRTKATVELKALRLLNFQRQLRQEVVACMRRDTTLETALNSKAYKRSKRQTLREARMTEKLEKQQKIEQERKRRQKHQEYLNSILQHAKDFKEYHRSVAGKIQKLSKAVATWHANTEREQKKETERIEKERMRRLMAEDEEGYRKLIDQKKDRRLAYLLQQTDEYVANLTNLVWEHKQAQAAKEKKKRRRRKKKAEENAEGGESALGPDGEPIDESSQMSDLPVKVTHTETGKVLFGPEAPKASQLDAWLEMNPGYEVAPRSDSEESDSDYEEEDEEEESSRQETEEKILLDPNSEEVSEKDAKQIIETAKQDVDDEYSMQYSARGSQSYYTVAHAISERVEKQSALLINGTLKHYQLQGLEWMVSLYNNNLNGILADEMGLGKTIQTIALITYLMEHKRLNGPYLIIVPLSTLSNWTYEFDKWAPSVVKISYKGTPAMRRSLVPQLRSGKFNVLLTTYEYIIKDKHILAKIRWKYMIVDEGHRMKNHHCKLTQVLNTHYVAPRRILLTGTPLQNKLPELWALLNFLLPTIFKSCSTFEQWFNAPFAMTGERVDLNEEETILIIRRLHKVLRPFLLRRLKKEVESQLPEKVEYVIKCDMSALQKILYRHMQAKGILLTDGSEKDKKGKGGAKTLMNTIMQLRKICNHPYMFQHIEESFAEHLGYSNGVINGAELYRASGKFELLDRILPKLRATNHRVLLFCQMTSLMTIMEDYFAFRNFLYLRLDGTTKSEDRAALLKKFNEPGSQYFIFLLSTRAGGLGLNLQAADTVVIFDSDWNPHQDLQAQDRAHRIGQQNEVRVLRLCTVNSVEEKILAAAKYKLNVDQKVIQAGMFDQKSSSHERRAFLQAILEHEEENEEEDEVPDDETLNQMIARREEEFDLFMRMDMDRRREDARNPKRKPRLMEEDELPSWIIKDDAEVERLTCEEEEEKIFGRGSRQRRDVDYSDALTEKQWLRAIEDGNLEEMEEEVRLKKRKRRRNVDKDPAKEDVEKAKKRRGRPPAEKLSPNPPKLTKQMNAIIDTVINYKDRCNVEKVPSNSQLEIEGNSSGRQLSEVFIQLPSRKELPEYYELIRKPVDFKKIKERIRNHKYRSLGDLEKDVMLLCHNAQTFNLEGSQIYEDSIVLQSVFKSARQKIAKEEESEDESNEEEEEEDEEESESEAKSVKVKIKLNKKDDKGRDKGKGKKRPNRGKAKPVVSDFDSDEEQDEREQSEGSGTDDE
Galanin receptor type 3, sequence (O60755 whole entry): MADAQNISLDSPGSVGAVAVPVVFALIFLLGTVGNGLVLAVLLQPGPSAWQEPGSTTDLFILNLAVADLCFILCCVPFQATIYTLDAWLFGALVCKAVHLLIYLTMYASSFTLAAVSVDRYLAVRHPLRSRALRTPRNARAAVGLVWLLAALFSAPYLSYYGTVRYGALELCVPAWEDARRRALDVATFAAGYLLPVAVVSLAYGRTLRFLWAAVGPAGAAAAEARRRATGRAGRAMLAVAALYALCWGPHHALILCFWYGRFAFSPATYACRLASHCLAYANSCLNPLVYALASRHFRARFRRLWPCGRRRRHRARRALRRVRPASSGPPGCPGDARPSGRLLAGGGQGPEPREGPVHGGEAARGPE
Long-chain-fatty-acid--AMP ligase FadD28, sequence (P9WQ59 whole entry): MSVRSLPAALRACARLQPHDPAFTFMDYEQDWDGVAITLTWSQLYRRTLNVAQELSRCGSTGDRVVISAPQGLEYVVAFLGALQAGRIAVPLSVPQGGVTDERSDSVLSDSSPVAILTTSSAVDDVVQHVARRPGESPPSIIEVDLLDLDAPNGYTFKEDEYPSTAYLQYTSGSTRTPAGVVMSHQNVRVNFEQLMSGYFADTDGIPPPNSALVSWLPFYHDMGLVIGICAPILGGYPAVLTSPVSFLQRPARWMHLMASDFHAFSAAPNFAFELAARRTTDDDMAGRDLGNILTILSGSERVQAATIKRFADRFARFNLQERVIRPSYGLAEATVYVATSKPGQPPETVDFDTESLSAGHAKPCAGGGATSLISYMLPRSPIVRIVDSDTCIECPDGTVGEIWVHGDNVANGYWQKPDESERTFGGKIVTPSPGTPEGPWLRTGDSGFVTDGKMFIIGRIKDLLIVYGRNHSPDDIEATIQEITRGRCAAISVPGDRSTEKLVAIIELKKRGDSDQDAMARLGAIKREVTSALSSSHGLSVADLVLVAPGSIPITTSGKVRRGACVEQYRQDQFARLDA

For `CCc1cccc2c(C(=O)Cn3nnc(-c4ccc(OC)c(OC)c4)n3)c[nH]c12`, which IC50 [1] is on record?
The IC50 was 10.3 µM (active).

What about the AC50 [2] of the same molecule?
Its AC50 is 40.8 µM (active).

What does the source list for `COc1ccc(/C=N/Nc2cc(C)nc3c(C)cccc23)cc1`?
EC50 [3]: 1.14 µM (active); EC50 [4]: > 91.2 µM (inactive); EC50 [5]: > 60 µM (not active); CC50 [6]: 31.6 µM (active); AC50 [7]: 2.28 µM (active); IC50 [8]: 68.9 µM (active); EC50 [9]: > 91.2 µM (inactive)

Which AbsAC35 [10] does the source give for `Cc1noc(C)c1S(=O)(=O)Nc1ccc2c(c1)C(=O)N([C@H](C)CO)C[C@H](C)[C@H](CN(C)Cc1ccc(C(F)(F)F)cc1)OCCCC[C@H](C)O2` here?
Its AbsAC35 is 76.4 µM.

Which EC50 [11] does the source give for `Nc1nc2ccccc2cc1C(=O)NCc1ccc(-c2ccccc2)cc1` here?
Its EC50 is > 29.9 µM (inactive).

And the IC50 [12]?
Its IC50 is 2.01 µM (active).

And the IC50 [13]?
The IC50 was 0.392 µM (active).

For `COc1ccccc1CNC(=O)C[C@H]1C[C@@H]2c3cc(NC(=O)CN(C)C)ccc3O[C@@H]2[C@@H](CO)O1`, which AbsAC35 [10] is on record?
Its AbsAC35 is 106.52 µM.

For `CCN(CC)CCn1nc2c3c(cccc3c1=O)-c1ccccc1-2`, which IC50 [14] is on record?
Its IC50 is > 67.5 µM (inactive).

What about the EC50 [3] of the same molecule?
The EC50 was 1.46 µM (active).

What about the EC50 [4] of the same molecule?
The EC50 was > 91.2 µM (inactive).

What about the AC50 [15] of the same molecule?
The AC50 was 2.4 µM (active).

And the EC50 [16]?
Its EC50 is > 260 µM (inactive).

What about the EC50 [9] of the same molecule?
The EC50 was > 91.2 µM (inactive).

And the EC50 [17]?
Its EC50 is > 350 µM (not active).

And the EC50 [18]?
The EC50 was 41 µM (active).

And the AC50 [19]?
The AC50 was 5.92 µM (active).
